Test results: US9512114B2, “Substituted aminopyrimidine compounds and methods of use” (Calitor Sciences, LLC, priority 2013, dated 2016)
pIC50: −log10 of the molar value.

Legend:
[1] = Compound stability in rat liver microsomes; type: in vitro ADME; settings: pH 7.4; for CLint scaled at 5 μM: liver microsomes, in vivo CLint extrapolated from rat liver microsome incubation; for half-life at 5 μM: rat liver microsomes 0.5 mg protein/mL, compound 5 μM, NADPH 1.0 mM, 37° C., read-out: Rat T1/2
Protocol: (§1) The LC/MS/MS system used in the analysis consists of an Agilent 1200 Series vacuum degasser, binary pump, well-plate autosampler, thermostatted column compartment, the Agilent G6430 Triple Quadrupole Mass Spectrometer with an electrosprayionization (ESI) source. Quantitative analysis was carried out using MRM mode. The parameters for MRM transitions are in the Table A.
(§2) An Agilent XDB-C18, 2.1×30 mm, […] column was used for the analysis. 5 μL of the samples were injected. Analysis condition: The mobile phase was 0.1% formic acid in water (A) and 0.1% formic acid in methanol (B). The flow rate was 0.4 mL/min. And the gradient of Mobile phase was in the Table B.
(§3) Alternatively, an Agilent 6330 series LC/MS/MS spectrometer equipped with G1312A binary pumps, a G1367A autosampler and a G1314C UV detector were used in the analysis. An ESI source was used on the LC/MS/MS spectrometer. The analysis was done in positive ion mode as appropriate and the MRM transition for each analyte was optimized using standard solution. A Capcell MP-C18 100×4.6 mm I.D., […] column (Phenomenex, Torrance, Calif., USA) was used during the analysis. The mobile phase was 5 mM ammonia acetate, 0.1% MeOH in water (A): 5 mM ammonia acetate, 0.1% MeOH in acetonitrile (B) (70:30, v/v). The flow rate was 0.6 mL/min. Column was maintained at ambient temperature. 20 μL of the samples were injected.
(§4) Human or rat liver microsomes incubations were conducted in duplicate in polypropylene tubes. The typical incubation mixtures consisted of human or rat liver microsomes (0.5 mg protein/mL), compounds of interest (5 μM) and NADPH (1.0 mM) in a total volume of 200 μL potassium phosphate buffer (PBS, 100 mM, pH 7.4). Compounds were dissolved in DMSO and diluted with PBS such that the final concentration of DMSO was 0.05%. The enzymatic reactions were commenced with the addition of protein after a 3-min preincubation and incubated in a water bath open to the air at 37° C. Reactions were terminated at various time points (0, 5, 10, 15, 30, 60 min) by adding equal volume of ice-cold acetonitrile. The samples were stored at −80° C. until LC/MS/MS assays.
(§5) The concentrations of compounds in the incubation mixtures of human or rat liver microsomes were determined by a LC/MS/MS method. The ranges of the linearity in the concentration range were determined for each tested compounds.
(§6) A parallel incubation was performed using denatured microsomes as the negative control, and reactions were terminated at various time points (0, 15, 60 min) after incubation at 37° C.
(§7) Dextromethorphan (70 μM) was selected as the positive control, and reactions were terminated at various time points (0, 5, 10, 15, 30, 60 min) after incubation at 37° C. Both positive and negative control samples were included in each assay to ensure the integrity of the microsomal incubation system.
(§8) The concentrations of compounds in human or rat liver microsome incubations were plotted as a percentage of the relevant zero time point control for each reaction. The in vivo CLint were extrapolated (ref.: Naritomi, Y.; Terashita, S.; Kimura, S.; Suzuki, A.; Kagayama, A.; and Sugiyama, Y.; Prediction of human hepatic clearance from in vivo animal experiments and in vitro metabolic studies with liver microsomes from animals and humans. Drug Metab. Dispos., 2001, 29: 1316-1324).

[2] = Pharmacokinetic profiles in rats; type: in vivo, rat; settings: for Cl/F / AUC(0-t) / half-life / Vd: iv dosing 1 mg/kg; for F: oral vs iv (iv 1 mg/kg; p.o. generally 5 or 10 mg/kg); for AUC(0-t) / half-life / Vd: rat, plasma; for Vd: read-out: Vss
Protocol: The compounds disclosed herein are assessed in pharmacokinetic studies in mice, rats, dogs or monkeys. The compounds are administered as a water solution, 2% HPMC+1% TWEEN®80 in water solution, 5% DMSO+5% solutol in saline, 4% MC suspension or capsule. For the intravenous administration, the animals are generally given at 1 or 2 mg/kg dose. For the oral (p.o.) dosing, mice and rats are generally given 5 or 10 mg/kg dose, and dogs and monkeys are generally given 10 mg/kg dose. The blood samples (0.3 mL) are drawn at 0.25, 0.5, 1.0, 2.0, 3.0, 4.0, 6.0, 8.0, 12 and 24 h time points or 0.083, 0.25, 0.5, 1.0, 2.0, 4.0, 6.0, 8.0 and 24 h time points and centrifuged at 3,000 or 4000 rpm for 2 to 10 min. The plasma solutions are collected, stored at −20° C. or −70° C. until analyzed by LC/MS/MS as described above.

PI3K (p110δ/p85α) (h) = PI3K (p110δ/p85α) (h) (Homo sapiens (Human), UniProt O00329); assay: PI3K (p110δ/p85α) (h) non-radioactive HTRF kinase assay; type: biochemical; settings: performed at Millipore UK Ltd
Chain of PI3K (p110δ/p85α) (h) (O00329 whole entry): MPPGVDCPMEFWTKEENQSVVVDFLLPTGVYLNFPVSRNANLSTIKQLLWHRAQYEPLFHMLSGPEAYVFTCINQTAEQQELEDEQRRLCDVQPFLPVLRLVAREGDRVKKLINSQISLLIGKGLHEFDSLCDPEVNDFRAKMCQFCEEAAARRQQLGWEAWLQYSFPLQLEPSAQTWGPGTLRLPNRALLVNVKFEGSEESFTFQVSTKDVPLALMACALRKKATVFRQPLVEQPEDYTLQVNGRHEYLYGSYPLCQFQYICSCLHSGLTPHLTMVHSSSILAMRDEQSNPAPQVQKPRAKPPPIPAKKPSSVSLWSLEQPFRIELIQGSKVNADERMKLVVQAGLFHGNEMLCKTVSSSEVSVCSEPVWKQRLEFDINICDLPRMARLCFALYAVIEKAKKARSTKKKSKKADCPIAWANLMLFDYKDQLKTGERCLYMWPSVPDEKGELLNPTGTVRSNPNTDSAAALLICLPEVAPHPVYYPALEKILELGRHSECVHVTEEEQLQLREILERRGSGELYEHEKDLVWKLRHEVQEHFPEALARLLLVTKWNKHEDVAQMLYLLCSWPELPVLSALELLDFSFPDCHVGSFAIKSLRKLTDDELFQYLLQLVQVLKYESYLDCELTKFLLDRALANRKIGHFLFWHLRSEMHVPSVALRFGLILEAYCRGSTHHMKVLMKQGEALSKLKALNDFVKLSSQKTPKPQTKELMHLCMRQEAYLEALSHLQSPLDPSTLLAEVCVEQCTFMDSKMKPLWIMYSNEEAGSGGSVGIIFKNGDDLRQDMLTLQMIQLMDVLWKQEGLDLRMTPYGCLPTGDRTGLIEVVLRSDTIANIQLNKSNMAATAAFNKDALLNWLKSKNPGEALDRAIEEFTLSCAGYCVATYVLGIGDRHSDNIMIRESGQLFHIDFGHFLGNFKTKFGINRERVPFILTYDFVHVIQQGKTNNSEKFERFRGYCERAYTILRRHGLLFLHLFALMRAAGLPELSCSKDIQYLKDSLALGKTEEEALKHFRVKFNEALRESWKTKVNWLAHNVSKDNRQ
Chain of PI3K (p110δ/p85α) (h) (P27986 whole entry partner): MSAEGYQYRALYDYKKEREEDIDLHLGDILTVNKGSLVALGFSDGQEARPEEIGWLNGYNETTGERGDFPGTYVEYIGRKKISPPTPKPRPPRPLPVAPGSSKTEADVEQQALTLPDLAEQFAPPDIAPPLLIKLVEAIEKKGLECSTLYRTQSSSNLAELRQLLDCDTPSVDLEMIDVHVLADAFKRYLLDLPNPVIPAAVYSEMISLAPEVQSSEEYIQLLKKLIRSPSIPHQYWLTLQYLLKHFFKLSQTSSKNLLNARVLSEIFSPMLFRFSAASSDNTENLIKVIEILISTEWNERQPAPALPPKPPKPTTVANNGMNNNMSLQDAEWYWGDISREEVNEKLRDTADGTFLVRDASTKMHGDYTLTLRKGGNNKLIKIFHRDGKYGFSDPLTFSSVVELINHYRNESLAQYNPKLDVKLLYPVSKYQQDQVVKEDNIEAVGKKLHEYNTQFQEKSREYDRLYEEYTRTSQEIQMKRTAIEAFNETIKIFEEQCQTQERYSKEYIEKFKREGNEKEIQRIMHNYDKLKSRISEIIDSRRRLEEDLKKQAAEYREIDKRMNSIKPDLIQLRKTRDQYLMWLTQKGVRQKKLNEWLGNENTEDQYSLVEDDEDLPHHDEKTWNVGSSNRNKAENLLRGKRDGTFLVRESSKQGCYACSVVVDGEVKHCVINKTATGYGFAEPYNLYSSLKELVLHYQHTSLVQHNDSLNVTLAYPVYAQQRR
Protocol: The above assay procedure can be used to determine the IC50 for inhibition and/or the inhibition constant, Ki.
PI3K (p110δ/p85α) (h) [Non-Radioactive Assay]
PI3K (p110δ/p85α) (h) is incubated in assay buffer containing 10 μM phosphatidylinositol-4, 5-bisphosphate and MgATP (concentration as required). The reaction is initiated by the addition of the MgATP mix. After incubation for 30 minutes at room temperature, the reaction is stopped by the addition of stop solution containing EDTA and biotinylated phosphatidylinositol-3,4,5-trisphosphate. Finally, detection buffer is added, which contains europium-labelled anti-GST monoclonal antibody, GST-tagged GRP1 PH domain and streptavidin-allophycocyanin. The plate is then read in timeresolved fluorescence mode and the homogenous time-resolved fluorescence (HTRF) signal is determined according to the formula HTRF=10000×(Em665 nm/Em620 nm).
The kinase assays described herein were performed at Millipore UK Ltd, Dundee Technology Park, Dundee DD2 1SW, UK.

[3] = Compound stability in human liver microsomes; type: in vitro ADME; settings: pH 7.4; for CLint scaled at 5 μM: liver microsomes, in vivo CLint extrapolated from human liver microsome incubation; for half-life at 5 μM: human liver microsomes 0.5 mg protein/mL, compound 5 μM, NADPH 1.0 mM, 37° C., read-out: Human T1/2
Protocol: as §1, §2, §3, §4, §5, §6, §7, §8

| SMILES | CLint scaled at 5 μM [1] | half-life at 5 μM [1] | Cl/F [2] | F [2] | AUC(0-t) [2] | half-life [2] | Vd [2] | pIC50 (PI3K (p110δ/p85α) (h)) | CLint scaled at 5 μM [3] | half-life at 5 μM [3] |
| --- | --- | --- | --- | --- | --- | --- | --- | --- | --- | --- |
| CC[C@H](Nc1ncnc(N)c1-c1nc(C)no1)c1cc2cccc(Cl)c2c(=O)n1C1CC1 [Ex. 7, (S)-3-(1-((6-amino-5-(3-methyl-1,2,4-oxadiazol-5-yl)pyrimidin-4-yl)amino)propyl)-8-chloro-2-ccyclopropylisoquinolin-1(2H)-one] | 250 mL/min/kg | 9.92 min | 54.3 mL/min/kg | 42.95% | 307 ng·h/mL | 138 min | 7.96 L/kg | 8.40 | 147 mL/min/kg | 11.8 min |
| C[C@H](Nc1ncnc(N)c1-c1nnn(C)n1)c1cc2cccc(Cl)c2c(=O)n1C1CC1 [Ex. 12, (S)-3-(1-((6-amino-5-(2-methyl-2H-tetrazol-5-yl)pyrimidin-4-yl)amino)ethyl)-8-chloro-2-cyclopropylisoquinolin-1(2H)-one] |  |  | 30 mL/min/kg | 32.09% | 555 ng·h/mL | 42 min | 1.42 L/kg | 7.92 |  |  |
| C[C@H](Nc1ncnc(N)c1-c1ncn(C)n1)c1cc2cccc(Cl)c2c(=O)n1C1CC1 [Ex. 16, (S)-3-(1-((6-amino-5-(1-methyl-1H-1,2,4-triazol-3-yl)pyrimidin-4-yl)amino)ethyl)-8-chloro-2-cyclopropylisoquinolin-1(2H)-one] | 173 mL/min/kg | 14.3 min | 89.3 mL/min/kg | 11.44% | 186 ng·h/mL | 36.6 min | 2.94 L/kg | 6.72 | 219 mL/min/kg | 7.92 min |
| CC[C@H](Nc1ncnc(N)c1-c1noc(C)n1)c1cc2cccc(F)c2c(=O)n1-c1ccccc1 [Ex. 18, (S)-3-(1-((6-amino-5-(5-methyl-1,2,4-oxadiazol-3-yl)pyrimidin-4-yl)amino)propyl)-8-fluoro-2-phenylisoquinolin-1(2H)-one] | 330 mL/min/kg | 7.53 min | 51.7 mL/min/kg | 38.15% | 323 ng·h/mL | 46.5 min | 1.66 L/kg | 7.49 | 226 mL/min/kg | 7.7 min |
| Cc1nc(-c2c(N)ncnc2N[C@@H](C)c2cc3cccc(-c4cnn(C)c4)c3c(=O)n2C2CC2)no1 [Ex. 34, (S)-3-(1-((6-amino-5-(5-methyl-1,2,4-oxadiazol-3-yl)pyrimidin-4-yl)amino)ethyl)-2-cyclopropyl-8-(1-methyl-1H-pyrazol-4-yl)isoquinolin-1 (2H)-one] | 29.9 mL/min/kg | 82.9 min | 23.7 mL/min/kg | 96.4% | 678 ng·h/mL | 92.4 min | 2.74 L/kg |  | 42.4 mL/min/kg | 41 min |

Now from value to molecule:

| CLint scaled at 5 μM [1] | half-life at 5 μM [1] | Cl/F [2] | F [2] | AUC(0-t) [2] | half-life [2] | Vd [2] | pIC50 (PI3K (p110δ/p85α) (h)) | CLint scaled at 5 μM [3] | half-life at 5 μM [3] | SMILES |
| --- | --- | --- | --- | --- | --- | --- | --- | --- | --- | --- |
| 219 mL/min/kg | 11.3 min | 93 mL/min/kg | 46.34% | 178 ng·h/mL | 37.8 min | 3.99 L/kg | 8.30 | 243 mL/min/kg | 10.2 min | CC[C@H](Nc1ncnc(N)c1-c1nc(C)no1)c1cc2cccc(F)c2c(=O)n1C1CC1 [Ex. 1, (S)-3-(1-((6-amino-5-(3-methyl-1,2,4-oxadiazol-5-yl)pyrimidin-4-yl)amino)propyl)-2-cyclopropyl-8-fluoroisoquinolin-1(2H)-one] |
| 418 mL/min/kg | 5.94 min | 79 mL/min/kg | 46.57% | 215 ng·h/mL | 69.6 min | 4.42 L/kg | 8.70 | 840 mL/min/kg | 2.07 min | CC[C@H](Nc1ncnc(N)c1-c1nc(C)no1)c1cc2cccc(C)c2c(=O)n1-c1ccccc1 [Ex. 2, (S)-3-(1-((6-amino-5-(3-methyl-1,2,4-oxadiazol-5-yl)pyrimidin-4-yl)amino)propyl)-8-methyl-2-phenylisoquinolin-1(2H)-one] |
| 259 mL/min/kg | 9.58 min | 99.8 mL/min/kg | 16.23% | 167 ng·h/mL | 79.2 min | 6.07 L/kg | 8.52 | 138 mL/min/kg | 12.6 min | CCc1noc(-c2c(N)ncnc2N[C@@H](CC)c2cc3cccc(Cl)c3c(=O)n2C2CC2)n1 [Ex. 22, (S)-3-(1-((6-amino-5-(3-ethyl-1,2,4-oxadiazol-5-yl)pyrimidin-4-yl)amino)propyl)-8-chloro-2-cyclopropylisoquinolin-1(2H)-one] |
| 26.7 mL/min/kg | 92.9 min | 12.7 mL/min/kg | 163.6% | 1300 ng·h/mL | 97.2 min | 1.9 L/kg |  | 28.4 mL/min/kg | 61.3 min | C[C@H](Nc1ncnc(N)c1-c1nnn(C)n1)c1cc2cccc(-c3cnn(C)c3)c2c(=O)n1C1CC1 [Ex. 33, (S)-3-(1-((6-amino-5-(2-methyl-2H-tetrazol-5-yl)pyrimidin-4-yl)amino)ethyl)-2-cyclopropyl-8-(1-methyl-1-pyrazol-4-yl)isoquinolin-1 (2H)-one] |
